Results taken from patent US9708314B2, “Heterocyclic amide compound” (NISSAN CHEMICAL INDUSTRIES, LTD., priority 2013, dated 2017).

Key:
Type in all cases: in vivo
Cyperus difformis = assay: Test Example 3: herbicidal effect by application to foliage (Wagner pot, water depth 0.1-0.5 cm); details: Nineteenth Table; application to foliage; application herbicide amount 320 g/ha
Procedure, shortened: (§1)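 Scores (0–5) reflect herbicidal ratio three weeks after a foliar spray: 0 is 5% or less, 5 is 90% or more. Plants had grown 14 days in alluvial soil pots in a 25–30 °C greenhouse before treatment with water-diluted emulsion at a set g/ha.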

Leptochloa chinensis = assay: as above; details: Nineteenth Table; application to foliage; application herbicide amount 320 g/ha
Procedure, shortened: as §1

[1] = tested on: Echinochloa crus-galli var. crus-galli; assay: as above; details: Nineteenth Table; application to foliage; application herbicide amount 320 g/ha
Procedure, shortened: as §1

[2] = tested on: directly sowed Oryza sativa; assay: Test Example 3: effect on crop by application to foliage (Wagner pot, water depth 0.1-0.5 cm); details: Nineteenth Table; application to foliage; application herbicide amount 320 g/ha
Procedure, shortened: as §1

Scirpus juncoides = assay: Test Example 2: herbicidal activity, application during weed generation in submerged conditions; details: Eighteenth Table; application herbicide amount 320 g/ha
Procedure, shortened: (§2)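 Scored three weeks post-application on a 0–5 scale (5: ≥90% herbicidal ratio, almost withered; 0: ≤5%). Plants raised from mixed-sown seed in submerged alluvial soil (4 cm water), 25–30 °C greenhouse; water-diluted emulsion applied onto water surface at one- to two-leaf stage, dose in g/ha.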

Monochoria vaginalis = assay: as above; details: Eighteenth Table; application herbicide amount 320 g/ha
Procedure, shortened: as §2

[3] = tested on: Echinochloa oryzacola Vasing.; assay: as above; details: Eighteenth Table; application herbicide amount 320 g/ha
Procedure, shortened: as §2

Row | Compound | E (herbicidal effect grade) (Cyperus difformis) | D (herbicidal effect grade) (Leptochloa chinensis) | H (herbicidal effect grade) [1] | b (effect on crop grade) [2] | B (Scirpus juncoides) herbicidal ratio grade (Scirpus juncoides) | C (Monochoria vaginalis) herbicidal ratio grade (Monochoria vaginalis) | A (Echinochloa oryzicola Vasing.) herbicidal ratio grade [3]
1 | Cc1nnc(NC(=O)c2ccc(C(F)(F)F)n3c(C=O)nnc23)o1 [1-068] | 5 (Herbicidal ratio of 90% or more (almost completely withered)) | 5 (Herbicidal ratio of 90% or more (almost completely withered)) | 5 (Herbicidal ratio of 90% or more (almost completely withered)) | 1 (Herbicidal ratio of 5% or more and less than 20%) | 2 (Herbicidal ratio of 20% or more and less than 40%) | 2 (Herbicidal ratio of 20% or more and less than 40%) | 2 (Herbicidal ratio of 20% or more and less than 40%)
2 | Cc1nnc(NC(=O)c2ccc(C(F)(F)F)n3c(C(C)S(C)(=O)=O)nnc23)o1 (stereo not drawn) [1-080] | 5 (Herbicidal ratio of 90% or more (almost completely withered)) | 5 (Herbicidal ratio of 90% or more (almost completely withered)) | 5 (Herbicidal ratio of 90% or more (almost completely withered)) | 5 (Herbicidal ratio of 90% or more (almost completely withered)) | 3 (Herbicidal ratio of 40% or more and less than 70%) | 4 (Herbicidal ratio of 70% or more and less than 90%) | 5 (Herbicidal ratio of 90% or more (almost completely withered))
3 | Cc1nnc(NC(=O)c2ccc(C(F)(F)F)n3c(C(C)[S+](C)[O-])nnc23)o1 (stereo not drawn) [1-079] | 5 (Herbicidal ratio of 90% or more (almost completely withered)) | 5 (Herbicidal ratio of 90% or more (almost completely withered)) | 5 (Herbicidal ratio of 90% or more (almost completely withered)) | 5 (Herbicidal ratio of 90% or more (almost completely withered)) | 3 (Herbicidal ratio of 40% or more and less than 70%) | 4 (Herbicidal ratio of 70% or more and less than 90%) | 4 (Herbicidal ratio of 70% or more and less than 90%)
4 | CCC(C)Sc1nnc2c(C(=O)Nc3nnc(C)o3)ccc(C(F)(F)F)n12 (stereo not drawn) [1-094] | 4 (Herbicidal ratio of 70% or more and less than 90%) | 4 (Herbicidal ratio of 70% or more and less than 90%) | 5 (Herbicidal ratio of 90% or more (almost completely withered)) | 1 (Herbicidal ratio of 5% or more and less than 20%) | 3 (Herbicidal ratio of 40% or more and less than 70%) | 3 (Herbicidal ratio of 40% or more and less than 70%) | 4 (Herbicidal ratio of 70% or more and less than 90%)
5 | Cc1nnc(NC(=O)c2ccc(C(F)(F)F)n3c(CCS(C)(=O)=O)nnc23)o1 [1-085] | 5 (Herbicidal ratio of 90% or more (almost completely withered)) | 5 (Herbicidal ratio of 90% or more (almost completely withered)) | 5 (Herbicidal ratio of 90% or more (almost completely withered)) | 3 (Herbicidal ratio of 40% or more and less than 70%) | 2 (Herbicidal ratio of 20% or more and less than 40%) | 2 (Herbicidal ratio of 20% or more and less than 40%) | 3 (Herbicidal ratio of 40% or more and less than 70%)
6 | Cc1nnc(NC(=O)c2ccc(C(F)(F)F)n3c(N4CCOCC4)nnc23)o1 [1-096] | 4 (Herbicidal ratio of 70% or more and less than 90%) | 5 (Herbicidal ratio of 90% or more (almost completely withered)) | 5 (Herbicidal ratio of 90% or more (almost completely withered)) | 4 (Herbicidal ratio of 70% or more and less than 90%) | 3 (Herbicidal ratio of 40% or more and less than 70%) | 4 (Herbicidal ratio of 70% or more and less than 90%) | 4 (Herbicidal ratio of 70% or more and less than 90%)
7 | Cc1nnc(NC(=O)c2ccc(C(F)(F)F)n3c(-c4ccc(Cl)nc4)nnc23)o1 [1-054] | 5 (Herbicidal ratio of 90% or more (almost completely withered)) | 5 (Herbicidal ratio of 90% or more (almost completely withered)) | 5 (Herbicidal ratio of 90% or more (almost completely withered)) | 3 (Herbicidal ratio of 40% or more and less than 70%) | 3 (Herbicidal ratio of 40% or more and less than 70%) | 3 (Herbicidal ratio of 40% or more and less than 70%) | 4 (Herbicidal ratio of 70% or more and less than 90%)
8 | Cc1cc(-c2nnc3c(C(=O)Nc4nnc(C)o4)ccc(C(F)(F)F)n23)n(C)n1 [1-056] | 5 (Herbicidal ratio of 90% or more (almost completely withered)) | 5 (Herbicidal ratio of 90% or more (almost completely withered)) | 5 (Herbicidal ratio of 90% or more (almost completely withered)) | 4 (Herbicidal ratio of 70% or more and less than 90%) | 4 (Herbicidal ratio of 70% or more and less than 90%) | 4 (Herbicidal ratio of 70% or more and less than 90%) | 5 (Herbicidal ratio of 90% or more (almost completely withered))
9 | Cc1nnc(NC(=O)c2ccc(C(F)(F)F)n3c(N(C)C)nnc23)o1 [1-076] | 5 (Herbicidal ratio of 90% or more (almost completely withered)) | 5 (Herbicidal ratio of 90% or more (almost completely withered)) | 5 (Herbicidal ratio of 90% or more (almost completely withered)) | 3 (Herbicidal ratio of 40% or more and less than 70%) | 0 (Herbicidal ratio of 5% or less (almost no effect)) | 4 (Herbicidal ratio of 70% or more and less than 90%) | 2 (Herbicidal ratio of 20% or more and less than 40%)
10 | COc1cc(OC)cc(-c2nnc3c(C(=O)Nc4nnc(C)o4)ccc(C(F)(F)F)n23)c1 [1-070] | 5 (Herbicidal ratio of 90% or more (almost completely withered)) | 5 (Herbicidal ratio of 90% or more (almost completely withered)) | 4 (Herbicidal ratio of 70% or more and less than 90%) | 0 (Herbicidal ratio of 5% or less (almost no effect)) | 5 (Herbicidal ratio of 90% or more (almost completely withered)) | 5 (Herbicidal ratio of 90% or more (almost completely withered)) | 5 (Herbicidal ratio of 90% or more (almost completely withered))
11 | Cc1nnc(NC(=O)c2ccc(C(F)(F)F)n3c(-c4cccs4)nnc23)o1 [1-057] | 5 (Herbicidal ratio of 90% or more (almost completely withered)) | 5 (Herbicidal ratio of 90% or more (almost completely withered)) | 5 (Herbicidal ratio of 90% or more (almost completely withered)) | 3 (Herbicidal ratio of 40% or more and less than 70%) | 3 (Herbicidal ratio of 40% or more and less than 70%) | 3 (Herbicidal ratio of 40% or more and less than 70%) | 2 (Herbicidal ratio of 20% or more and less than 40%)
12 | COc1ccc(Cc2nnc3c(C(=O)Nc4nnc(C)o4)ccc(C(F)(F)F)n23)cc1 [1-069] | 5 (Herbicidal ratio of 90% or more (almost completely withered)) | 5 (Herbicidal ratio of 90% or more (almost completely withered)) | 5 (Herbicidal ratio of 90% or more (almost completely withered)) | 1 (Herbicidal ratio of 5% or more and less than 20%) | 4 (Herbicidal ratio of 70% or more and less than 90%) | 4 (Herbicidal ratio of 70% or more and less than 90%) | 4 (Herbicidal ratio of 70% or more and less than 90%)
